This note sets out measurements from ChEMBL document CHEMBL4261632, “Synthesis of five libraries of 6,5-fused heterocycles to establish the importance of the heterocyclic core for antiplasmodial activity” (Bioorg Med Chem, 2018).

The assay concerns Plasmodium falciparum. The experiment in a line: Antiplasmodial activity against chloroquine-sensitive Plasmodium falciparum NF54. Format: functional, organism-based.
[1] abbreviates: Plasmodium falciparum, NF54, read-out: EC50.

Each structure is given as a SMILES string.

As a reminder, the EC50 is the midpoint of the concentration-response curve. `Cn1c(C(=O)OCc2ccccc2)nc2cccc(OC3CCNCC3)c21`: the EC50 under setting [1] amounted to 13.3 µM.

`Cc1c(C(=O)OCc2ccccc2)[nH]c2cccc(OC3CCNCC3)c12`: the EC50 under setting [1] turned out to be 0.56 µM.

For the compound `Cl.O=C(NCCc1ccccc1)c1nc2c(OC3CCNCC3)cccc2o1`, the EC50 entry is recorded as “Not Active”.

Consider `Cn1c(C(=O)NCCc2ccccc2)nc2cccc(OC3CCNCC3)c21`, for which the half-maximal effective concentration (EC50) under setting [1] was found to be 8.69 µM.

As for `O=C(NCc1cccc2ccccc12)c1cc2c(OC3CCNCC3)cccc2s1`, the EC50 under setting [1] came to 0.71 µM.

On to `Cc1c(C(=O)NCc2ccccc2)[nH]c2cccc(OC3CCNCC3)c12`, for which the EC50 under setting [1] is 6.11 µM.

Turning to `Cn1c(C(=O)NCc2cccc3ccccc23)nc2cccc(OC3CCNCC3)c21`, the EC50 under setting [1] stood at 1.15 µM.

Regarding `Cc1c(C(=O)OCc2cccc3ccccc23)[nH]c2cccc(OC3CCNCC3)c12`, under setting [1], the EC50 was 0.74 µM.

Take `Cl.O=C(OCc1ccccc1)c1nc2c(OC3CCNCC3)cccc2o1`: the EC50 result is “Not Active”.

`O=C(OCc1cccc2ccccc12)c1cc2c(OC3CCNCC3)cccc2[nH]1`: the EC50 under setting [1] came to 0.83 µM.

On to `O=C(OCCc1ccccc1)c1cc2c(OC3CCNCC3)cccc2[nH]1`, for which, under setting [1], the EC50 was found to be 6.53 µM.

`O=C(OCc1cccc2ccccc12)c1cc2c(OC3CCNCC3)cccc2s1`: the EC50 under setting [1] turned out to be 1.9 µM.

Consider `Cn1c(C(=O)OCCc2ccccc2)nc2cccc(OC3CCNCC3)c21`, for which the EC50 under setting [1] came out at 11.1 µM.

Take `O=C(OCc1ccccc1)c1cc2c(OC3CCNCC3)cccc2s1`: under setting [1], the EC50 was 5.69 µM.

In the case of `Cl.O=C(NCc1ccccc1)c1nc2c(OC3CCNCC3)cccc2o1`, the EC50 entry is on record as “Not Active”.

For the compound `Cc1c(C(=O)NCCc2ccccc2)[nH]c2cccc(OC3CCNCC3)c12`, under setting [1], the EC50 amounted to 3.4 µM.

For `Cn1c(C(=O)OCc2cccc3ccccc23)nc2cccc(OC3CCNCC3)c21`, under setting [1], the EC50 was 7.37 µM.

Consider `Cc1c(C(=O)OCCc2ccccc2)[nH]c2cccc(OC3CCNCC3)c12`, for which, under setting [1], the EC50 is 3.9 µM.

`O=C(NCc1ccccc1)c1cc2c(OC3CCNCC3)cccc2s1`: under setting [1], the EC50 was found to be 3.48 µM.

Consider `O=C(NCCc1ccccc1)c1cc2c(OC3CCNCC3)cccc2[nH]1`, for which the EC50 under setting [1] is 3.1 µM.

As to `O=C(OCCc1ccccc1)c1cc2c(OC3CCNCC3)cccc2s1`, under setting [1], the EC50 came to 5.87 µM.

As for `O=C(NCc1cccc2ccccc12)c1nc2c(OC3CCNCC3)cccc2o1`, the EC50 under setting [1] worked out at 1.96 µM.

With `C[C@H]1[C@H](OC(=O)CCC(=O)O)O[C@@H]2O[C@@]3(C)CC[C@H]4[C@H](C)CC[C@@H]1[C@@]24OO3` [ARTESUNATE], the EC50 under setting [1] came out at 0.00941 µM.

Regarding `O=C(NCc1ccccc1)c1cc2c(OC3CCNCC3)cccc2[nH]1`, the EC50 under setting [1] was 3.74 µM.

In the case of `Cc1c(C(=O)NCc2cccc3ccccc23)[nH]c2cccc(OC3CCNCC3)c12`, the EC50 under setting [1] turned out to be 0.74 µM.

As for `O=C(NCc1cccc2ccccc12)c1cc2c(OC3CCNCC3)cccc2[nH]1`, the EC50 under setting [1] came out at 0.9 µM.

For the compound `O=C(NCCc1ccccc1)c1cc2c(OC3CCNCC3)cccc2s1`, the EC50 under setting [1] came out at 3.01 µM.

On to `O=C(OCc1ccccc1)c1cc2c(OC3CCNCC3)cccc2[nH]1`, for which the EC50 under setting [1] was determined as 3.39 µM.

Take `Cl.O=C(OCc1cccc2ccccc12)c1nc2c(OC3CCNCC3)cccc2o1`: the EC50 entry is given as “Not Active”.

For the compound `Cl.O=C(OCCc1ccccc1)c1nc2c(OC3CCNCC3)cccc2o1`, the EC50 entry is “Not Active”.

For the compound `Cn1c(C(=O)NCc2ccccc2)nc2cccc(OC3CCNCC3)c21`, under setting [1], the EC50 came to 8.8 µM.

Turning to `CCN(CC)CCCC(C)Nc1ccnc2cc(Cl)ccc12` (configuration not stated) [CHLOROQUINE], under setting [1], the EC50 turned out to be 0.013 µM.
